One series deals with Huh7 cells. The note with it: at 10 μM, compared with vehicle control, n = 1.
Series [1] has as its system hACE‐2‐overexpressed HEK293T (ACE2‐293T cells).
The test system of another series is HCoV‐229E. As to the kind of experiment: microbe, parasite or virus in culture. Format: cell-based. The note with it: for Protective effects HCoV-229E % / inhibition at 10 µM: at 10 μM, compared with vehicle control, Huh7 cells, n = 1; for inhibition at 10 µM: Human coronavirus 229E, Huh-7, read-out: Protective effects HCoV-229E %.
The next series in a line: in vitro. The note with it: human.

Several values for one entry are separate records, joined by “and”; a condition that tells them apart may be missing. Identical values can stand only once. Like-named read-outs stand apart in the source and are kept apart here.

The EC50 is the concentration at which the effect is half-maximal. A high value points to a less potent agent. Usually viability stands for a read-out of living cells in per cent, often relative to untreated cells.

As to (±)‐Haemanthidine [Compound 1], the “Cytotoxicity to the host Huh7 cells %” value with Huh7 cells was 20% and ~ 20%. Further, in series [1], the “cytotoxicity towards hACE2‐293 T cells (in words)” value is on record as “toxic”. Moreover, the “Cell viability (%)” value in series [1] (ACE2-293T, 10 μM, 24 h, WST-1) came out at 51.97 ± 7.07%. Moreover, in the series with HCoV‐229E, the EC50 came to 4.11 ± 0.41 µM and the “Protective effects HCoV-229E %” value was found to be 80%.
Turning to (−)‐corypalmine [Compound 25], in the series on Huh7 cells, the “Cytotoxicity to the host Huh7 cells %” value is “— (Non-toxic (insignificant cytotoxic effects, below 20%))”. For the same molecule, the “Protective effects HCoV-229E %” value in the series with HCoV‐229E is “— (Not active (insignificant protective effects below 20%))”.
Consider `c1cc2c(c3c1C[C@H]1c4cc5c(cc4CCN1C3)OCO5)OCO2` [Compound 49, (−)‐stylopine], for which the “Cytotoxicity to the host Huh7 cells %” value in the series on Huh7 cells is reported as “— (Non-toxic (insignificant cytotoxic effects, below 20%))”. In the series on HCoV‐229E, the “Protective effects HCoV-229E %” value was “— (Not active (insignificant protective effects below 20%))”.
For (−)‐O‐methylcaryachine [Compound 35], in the series on Huh7 cells, the “Cytotoxicity to the host Huh7 cells %” value is “— (Non-toxic (insignificant cytotoxic effects, below 20%))”. Besides, the “Protective effects HCoV-229E %” value in the series on HCoV‐229E is recorded as “— (Not active (insignificant protective effects below 20%))”.
As for (−)‐berkristine [Compound 21], the “Cytotoxicity to the host Huh7 cells %” value in the series on Huh7 cells was “— (Non-toxic (insignificant cytotoxic effects, below 20%))”. Also, the “Protective effects HCoV-229E %” value with HCoV‐229E is given as 65%.
For the molecule `COc1ccc(Cc2nccc3cc(OC)c(OC)cc23)cc1OC` [Compound 53, papaverine], the “Cytotoxicity to the host Huh7 cells %” value with Huh7 cells was 20%. Further, the inhibition at 10 µM in the series with HCoV‐229E is < 20%.
As for `CN1CCC2=CC[C@H]3OC(=O)c4cc5c(cc4[C@H]3[C@@H]21)OCO5` [Compound 11, masonine], in the series with Huh7 cells, the “Cytotoxicity to the host Huh7 cells %” value is “— (Non-toxic (insignificant cytotoxic effects, below 20%))”. For the same molecule, the “Protective effects HCoV-229E %” value in the series with HCoV‐229E is on record as “— (Not active (insignificant protective effects below 20%))”.
For the molecule (+)‐aromoline [Compound 16], in the series with Huh7 cells, the “Cytotoxicity to the host Huh7 cells %” value is reported as “— (Non-toxic (insignificant cytotoxic effects, below 20%))”. In addition, the “cytotoxicity towards hACE2‐293 T cells (in words)” value in series [1] was “nontoxic”. In addition, the “Cell viability (%)” value in series [1] (10 µM) was 103.64 ± 3.23%. In addition, in the series on HCoV‐229E, the EC50 was determined as 4.33 ± 0.9 µM and the “Protective effects HCoV-229E %” value came out at 85%.
For `CN1CCC2=CCC3OC(O)c4cc5c(cc4C3C21)OCO5` (centres unmarked) [Compound 8, oduline], in the series with Huh7 cells, the “Cytotoxicity to the host Huh7 cells %” value turned out to be 20%. Further, in the series on HCoV‐229E, the “Protective effects HCoV-229E %” value is “— (Not active (insignificant protective effects below 20%))”.
In the case of `CN1Cc2c(ccc3c2OCO3)[C@@H]2[C@H]1c1cc3c(cc1C[C@@H]2O)OCO3` [Compound 50, chelidonine], in the series with Huh7 cells, the “Cytotoxicity to the host Huh7 cells %” value was 35% and 35%–40%. For the same molecule, the inhibition at 10 µM in the series on HCoV‐229E was < 20%.
Turning to `COc1cc2c(cc1O)[C@@H]1Cc3ccc(OC)c(OC)c3CN1CC2` [Compound 32, tetrahydrocolumbamine], in the series with Huh7 cells, the “Cytotoxicity to the host Huh7 cells %” value is reported as “— (Non-toxic (insignificant cytotoxic effects, below 20%))”. Further, the “Protective effects HCoV-229E %” value in the series with HCoV‐229E was “— (Not active (insignificant protective effects below 20%))”.
Regarding (−)‐undulatine [Compound 13], the “Cytotoxicity to the host Huh7 cells %” value in the series with Huh7 cells is reported as “— (Non-toxic (insignificant cytotoxic effects, below 20%))”. Also, the “Protective effects HCoV-229E %” value with HCoV‐229E is given as “— (Not active (insignificant protective effects below 20%))”.
For `COc1ccc2c(c1OC)[C@@H]1Cc3cc4c(cc3[C@H](C2)N1C)OCO4` [Compound 36, O‐methylneocarychine], the “Cytotoxicity to the host Huh7 cells %” value with Huh7 cells is listed as “— (Non-toxic (insignificant cytotoxic effects, below 20%))”. Also, the “Protective effects HCoV-229E %” value in the series on HCoV‐229E was “— (Not active (insignificant protective effects below 20%))”.
`COc1cc2c(cc1O)C[C@@H]1NCCc3cc(OC)c(OC)c-2c31` [Compound 58, (+)‐laurotetanine]: the “Cytotoxicity to the host Huh7 cells %” value with Huh7 cells is “— (Non-toxic (insignificant cytotoxic effects, below 20%))”. In addition, the “Protective effects HCoV-229E %” value in the series on HCoV‐229E is reported as “— (Not active (insignificant protective effects below 20%))”.
As to `O[C@@H]1CC=C2CCN3Cc4cc5c(cc4[C@H]1[C@@H]23)OCO5` [Compound 15, (−)‐caranine], the “Cytotoxicity to the host Huh7 cells %” value in the series with Huh7 cells was “— (Non-toxic (insignificant cytotoxic effects, below 20%))”. For the same molecule, in the series with HCoV‐229E, the “Protective effects HCoV-229E %” value is recorded as “— (Not active (insignificant protective effects below 20%))”.
`CCOC1c2c(ccc(OC)c2OC)-c2ccc3cc4c(cc3c2N1C)OCO4` (centres unmarked) [Compound 52, 6‐ethoxydihydrochelerytrine]: in the series with Huh7 cells, the “Cytotoxicity to the host Huh7 cells %” value was 80% and > 80%. Also, in the series with HCoV‐229E, the “Protective effects HCoV-229E %” value was “— (Not active (insignificant protective effects below 20%))”.
Regarding `COc1ccc2c(c1OC)CN1CCc3cc4c(cc3C1C2)OCO4` (stereo not drawn) [Compound 26, (+)‐canadine], the “Cytotoxicity to the host Huh7 cells %” value in the series with Huh7 cells was “— (Non-toxic (insignificant cytotoxic effects, below 20%))”. In addition, the “Protective effects HCoV-229E %” value in the series on HCoV‐229E is given as “— (Not active (insignificant protective effects below 20%))”.
As to `COc1cc2c3cc1Oc1c(O)c(OC)cc4c1[C@@H](Cc1ccc(O)c(c1)Oc1ccc(cc1)C[C@@H]3N(C)CC2)N(C)CC4` [Compound 19, (+)‐obamegine], the viability at 10 µM in “in vitro” worked out at 97.5 ± 7.15%. Also, the “Cytotoxicity to the host Huh7 cells %” value in the series with Huh7 cells is “— (Non-toxic (insignificant cytotoxic effects, below 20%))”. In series [1], the “cytotoxicity towards hACE2‐293 T cells (in words)” value is on record as “nontoxic”. In addition, the inhibition at 10 µM in the series on HCoV‐229E is 80%.
Regarding `COc1ccc(CC2c3cc4c(cc3CCN2C)OCO4)c(C=O)c1OC` (stereo not drawn) [Compound 30, (+)‐canadaline], the “Cytotoxicity to the host Huh7 cells %” value in the series on Huh7 cells was “— (Non-toxic (insignificant cytotoxic effects, below 20%))”. Moreover, the “Protective effects HCoV-229E %” value with HCoV‐229E is reported as “— (Not active (insignificant protective effects below 20%))”.
As to `COC1=C[C@@]23CCN(C)[C@@H](Cc4cc(O)c(OC)cc42)C3=CC1=O` [Compound 60, (−)‐pallidine], the “Cytotoxicity to the host Huh7 cells %” value in the series on Huh7 cells is reported as “— (Non-toxic (insignificant cytotoxic effects, below 20%))”. Also, the “Protective effects HCoV-229E %” value in the series on HCoV‐229E is listed as “— (Not active (insignificant protective effects below 20%))”.
Regarding `COc1cc2c(cc1O)[C@]1(Cc3ccc4c(c3C1=O)OCO4)N(C)CC2` [Compound 42, (+)‐parfumine], the “Cytotoxicity to the host Huh7 cells %” value with Huh7 cells was “— (Non-toxic (insignificant cytotoxic effects, below 20%))”. Besides, in the series with HCoV‐229E, the “Protective effects HCoV-229E %” value was “— (Not active (insignificant protective effects below 20%))”.
Take `COc1ccc2c(c1O)-c1c3c(cc4c1[C@H](C2)N(C)CC4)OCO3` [Compound 28, (+)‐bulbocapnine]: the “Cytotoxicity to the host Huh7 cells %” value in the series on Huh7 cells is recorded as “— (Non-toxic (insignificant cytotoxic effects, below 20%))”. The “Protective effects HCoV-229E %” value with HCoV‐229E is “— (Not active (insignificant protective effects below 20%))”.
`O[C@@H]1Cc2cc3c(cc2[C@@H]2NCc4c(ccc5c4OCO5)[C@H]12)OCO3` [Compound 48, norchelidonine]: the “Cytotoxicity to the host Huh7 cells %” value in the series on Huh7 cells is given as 50%. Moreover, the inhibition at 10 µM in the series with HCoV‐229E worked out at 50%.
Take `CN1CCc2cc3c(cc2[C@]12Cc1ccc4c(c1C2=O)OCO4)OCO3` [Compound 41, (+)‐fumariline]: in the series on Huh7 cells, the “Cytotoxicity to the host Huh7 cells %” value is “— (Non-toxic (insignificant cytotoxic effects, below 20%))”. The “Protective effects HCoV-229E %” value in the series with HCoV‐229E is listed as “— (Not active (insignificant protective effects below 20%))”.
Take `CO[C@@H]1C=C[C@@]23c4cc5c(cc4CN(C[C@@H]2O)[C@H]3C1)OCO5` [Compound 3, (+)‐haemanthamine]: the “Cytotoxicity to the host Huh7 cells %” value in the series on Huh7 cells turned out to be 50%. The inhibition at 10 µM in the series on HCoV‐229E was determined as 50%.
With `COc1cc2c3cc1Oc1c(OC)c(OC)cc4c1[C@@H](Cc1ccc(O)c(c1)Oc1ccc(cc1)C[C@@H]3N(C)CC2)N(C)CC4` [Compound 17, (+)‐berbamine], the viability at 10 µM in the series “in vitro” is 103 ± 2.42%. In the series with Huh7 cells, the “Cytotoxicity to the host Huh7 cells %” value is 25% and ~ 20%. The “cytotoxicity towards hACE2‐293 T cells (in words)” value in series [1] was “nontoxic”. In addition, in the series on HCoV‐229E, the inhibition at 10 µM turned out to be 70%.

The values are drawn from PMC12497685, “Anticoronavirus Isoquinoline Alkaloids: Unraveling the Secrets of Their Structure–Activity Relationship” (Influenza and Other Respiratory Viruses, 2025).
